# Where two headings read alike, the source gives them in different places.
# Target: T1, human FAAH (Homo sapiens, UniProt O00519)
# T1 construct: expressed in transfected cells; host or cells: H4 cells (H4-FAAH, Geneticin-selected); crude membrane homogenates
# T1 sequence (O00519 1-579): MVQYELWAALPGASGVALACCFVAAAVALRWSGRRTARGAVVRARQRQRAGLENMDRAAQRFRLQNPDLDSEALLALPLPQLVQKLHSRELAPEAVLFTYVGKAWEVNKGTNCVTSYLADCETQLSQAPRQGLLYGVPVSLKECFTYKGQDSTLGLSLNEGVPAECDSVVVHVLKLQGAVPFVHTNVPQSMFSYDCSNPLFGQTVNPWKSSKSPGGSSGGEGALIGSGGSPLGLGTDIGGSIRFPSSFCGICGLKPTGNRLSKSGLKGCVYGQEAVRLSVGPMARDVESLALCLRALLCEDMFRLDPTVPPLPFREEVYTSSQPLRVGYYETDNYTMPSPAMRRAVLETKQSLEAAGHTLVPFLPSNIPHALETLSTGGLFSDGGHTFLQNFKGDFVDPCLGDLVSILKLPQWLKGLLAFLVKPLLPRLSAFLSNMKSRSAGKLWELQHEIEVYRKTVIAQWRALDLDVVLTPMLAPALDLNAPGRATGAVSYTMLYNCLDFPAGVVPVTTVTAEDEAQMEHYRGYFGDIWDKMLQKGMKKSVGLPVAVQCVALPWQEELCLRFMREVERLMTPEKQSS
# Assay: FAAH activity in membrane homogenates of H4-FAAH cells, [3H]-anandamide hydrolysis
# Type: biochemical
# Protocol: Homogenates of crude membranes were prepared from H4 cells that express transfected human FAAH (H4-FAAH cells). Briefly, cells were grown in DMEM supplemented with 10% FBS and Geneticin at a final concentration of 500 μg/ml (Gibco BRL, Rockville, Md.). Confluent cultures of H4-FAAH cells were rinsed twice with phosphate-buffered saline [138 mM NaCl, 4.1 mM KCl, 5.1 mM Na2PO4, 1.5 mM KH2PO4 (pH 7.5), 37° C.] and incubated for 5 to 10 minutes at 4° C. in lysis buffer [1 mM sodium bicarbonate]. Cells were transferred from plates to polypropylene tubes (16×100 mm), homogenized and centrifuged at 32,000×g for 30 minutes. Pellets were resuspended by homogenization in lysis buffer and centrifuged at 32,000×g for 30 minutes. Pellets were resuspended in lysis buffer (15-20 μg protein/ml) then stored at −80° C. until needed. On the day of an experiment, membranes were diluted to 2.67 μg protein/ml in 125 mM Tris-Cl, pH 9.0.
# Activity of FAAH was measured using a modification of the method described by Omeir et al., 1995 (Life Sci 56:1999, 1995). Membrane homogenates (240 ng protein) were incubated at room temperature for one hour with 1.67 nM anandamide [ethanolamine 1-^3H] (available from American Radiolabeled Chemical Inc., St Louis, Mo.) and 10 μM anandamide (available from Sigma/RBI, St. Louis, Mo.) in the absence and presence of inhibitors. The reaction was stopped by the addition of 1 volume of a solution of 1:1 methanol and dichloroethane. The mixture was shaken and then centrifuged at 1000×g for 15 minutes to separate the aqueous and organic phases. An aliquot of the aqueous phase, containing [^3H]-ethanolamine was withdrawn and counted by scintillation spectroscopy. Data were expressed as the percentage of [^3H]-ethanolamine formed versus vehicle, after subtraction of the background radioactivity determined in the presence of 10 μM arachidonyl trifluoromethyl ketone (ATFMK), an inhibitor of FAAH. IC50 values were determined using a four-parameter logistic equation for dose-response curves.
# [1] = H4-FAAH cell membranes, 10 μM anandamide, room temperature, one hour, read-out: IC50
Compound,IC50 [1] [nM],IC50 [nM]
"CCCCOc1ccc(NC(=O)O/N=C/c2ccccc2)cc1OC [Example 19, Benzaldehyde, O-[[(4-butoxy-3-methoxyphenyl)amino]carbonyl]oxime]",101 to 500,–
"O=C(Nc1ccc(OCCc2ccccc2)cc1)O/N=C/c1ccc(F)cc1 [Example 82, 4-Fluorobenzaldehyde, O-[[[4-(2-phenylethoxy)phenyl]amino]carbonyl]oxime]",< 10,–
"O=C(Nc1ccc(Oc2ccccc2)cc1)O/N=C/c1cccnc1 [Example 71, 3-Pyridinecarboxaldehyde, O-[[(4-phenoxyphenyl)amino]carbonyl]oxime]",< 10,–
"CCCCCCCCOc1ccc(NC(=O)O/N=C/c2ccc(F)cc2)cc1 [Example 46, 4-Fluorobenzaldehyde, O-[[(4-octyloxyphenyl)amino]carbonyl]oxime]",< 10,–
"O=C(Nc1ccc(OCc2ccccc2)cc1)O/N=C/c1cccnc1 [Example 78, 3-Pyridinecarboxaldehyde, O-[[[4-(phenylmethoxy)phenyl]amino]carbonyl]oxime]",< 10,–
"CCCCOc1cccc(NC(=O)O/N=C/c2cccnc2)c1 [Example 65, 3-Pyridinecarboxaldehyde, O-[[(3-butoxyphenyl)amino]carbonyl]oxime]",10 to 100,–
"CCCCOc1ccc(NC(=O)O/N=C/c2ccccc2)cc1 [Example 39, Benzaldehyde, O-[[(4-butoxyphenyl)amino]carbonyl]oxime]",< 10,–
"CCCCOc1ccc(NC(=O)Oc2ccc(F)c(F)c2)cc1 [Example 109, 4-Butoxyphenylcarbamic acid, 3,4-difluorophenyl ester]",> 500,–
"CCCCOc1ccc(CNC(=O)Oc2ccc3ccccc3c2)cc1 [Example 116, 4-(Butoxyphenylmethyl)carbamic acid, 2-naphthalenyl ester]",10 to 100,–
"CCCCOc1ccc(NC(=O)Oc2ccccc2F)cc1 [Example 107, 4-Butoxyphenylcarbamic acid, 2-fluorophenyl ester]",101 to 500,–
"O=C(Nc1ccc2oc3ccccc3c2c1)O/N=C/c1cccnc1 [Example 152, 3-Pyridinecarboxaldehyde, O-[[(2-dibenzofuranyl)amino]carbonyl]oxime]",101 to 500,–
"CCCCOc1ccc(CNC(=O)O/N=C/c2ccccc2)cc1 [Example 62, Benzaldehyde, O-[[(4-butoxyphenylmethyl)amino]carbonyl]oxime]",10 to 100,–
"CCCCOc1ccc(CNC(=O)Oc2ccc(C(C)C)cc2)cc1 [Example 117, 4-(Butoxyphenylmethyl)carbamic acid, 4-(1-methylethyl)phenyl ester]",10 to 100,–
"CCCCCOc1ccc(NC(=O)O/N=C/c2ccccc2)cc1 [Example 11, Benzaldehyde, O-[[(4-pentyloxyphenyl)amino]carbonyl]oxime]",–,< 10
"O=C(Nc1ccc(OCCc2ccccc2)cc1)O/N=C/c1cccnc1 [Example 79, 3-Pyridinecarboxaldehyde, O-[[[4-(2-phenylethoxy)phenyl]amino]carbonyl]oxime]",< 10,–
"CCCCOc1cccc(NC(=O)O/N=C/c2ccccc2)c1 [Example 67, Benzaldehyde, O-[[(3-butoxyphenyl)amino]carbonyl]oxime]",10 to 100,–
"O=C(Nc1ccc(Oc2cccnc2)cc1)O/N=C/c1ccc(F)cc1 [Example 150, 4-Fluorobenzaldehyde, O-[[[4-[(3-pyridinyl)oxy]phenyl]amino]carbonyl]oxime]",< 10,–
"CCCCCCCCCCOc1ccc(NC(=O)O/N=C/c2ccccc2)cc1 [Example 33, Benzaldehyde, O-[[(4-decyloxyphenyl)amino]carbonyl]oxime]",< 10,–
"CCCCOc1ccc(CNC(=O)Oc2ccc(OC)cc2)cc1 [Example 113, 4-(Butoxyphenylmethyl)carbamic acid, 4-methoxyphenyl ester]",< 10,–
"CCCCCCCOc1ccc(NC(=O)O/N=C/c2cccnc2)cc1 [Example 1, 3-Pyridinecarboxaldehyde, O-[[[4-(Heptyloxy)phenyl]amino]carbonyl]oxime]",< 10,–

Compound,IC50 [1] [nM],IC50 [nM]
"CCCCOc1ccc(CNC(=O)Oc2ccccc2F)cc1 [Example 112, 4-(Butoxyphenylmethyl)carbamic acid, 2-fluorophenyl ester]",< 10,–
"CCCCOc1ccc(C(CC)NC(=O)Oc2ccc3ccccc3c2)cc1 (stereo not drawn) [Example 128, [1-(4-Butoxy-phenyl)-propyl]-carbamic acid naphthalen-2-yl ester]",10 to 100,–
"O=C(Nc1ccc(Oc2ccccc2)cc1)O/N=C/c1ccc(F)cc1 [Example 77, 4-Fluorobenzaldehyde, O-[[(4-phenoxyphenyl)amino]carbonyl]oxime]",< 10,–
"CCCCCCCCCOc1ccc(NC(=O)O/N=C/c2cc(C(F)(F)F)ccc2F)cc1 [Example 57, 2-Fluoro-5-(trifluoromethyl)benzaldehyde, O-[[(4-nonyloxyphenyl)amino]carbonyl]oxime]",< 10,–
"O=C(Nc1ccc(Oc2ccccn2)cc1)O/N=C/c1ccccc1 [Example 149, Benzaldehyde, O-[[[4-[(2-pyridinyl)oxy]phenyl]amino]carbonyl]oxime]",10 to 100,–
"CCCCOc1ccc(CNC(=O)Oc2ccc(F)cc2F)cc1 [Example 120, 4-(Butoxyphenylmethyl)carbamic acid, 2,4-difluorophenyl ester]",< 10,–
"CCCCOc1ccc(NC(=O)O/N=C/c2ccc([N+](=O)[O-])cc2)cc1 [Example 59, 4-Nitrobenzaldehyde, O-[[(4-butoxyphenyl)amino]carbonyl]oxime]",< 10,–
"CCCCCCCCCCOc1ccc(NC(=O)Oc2ccccc2)cc1 [Example 101, 4-Decyloxyphenylcarbamic acid, phenyl ester]",–,< 10
"O=C(Nc1ccc(Oc2ccncc2)cc1)O/N=C/c1ccc(F)cc1 [Example 146, 4-Fluorobenzaldehyde, O-[[[4-[(4-pyridinyl)oxy]phenyl]amino]carbonyl]oxime]",101 to 500,–
"O=C(Nc1ccc(Oc2ccccc2)cc1)Oc1ccccc1F [Example 123, 4-Phenoxyphenylcarbamic acid, 2-fluorophenyl ester]",> 500,–
"O=C(Nc1c[nH]c2ccccc12)O/N=C/c1ccc(F)cc1 [Example 144, 4-Fluorobenzaldehyde, O-[[(1H-indol-3-yl)amino]carbonyl]oxime]",> 500,–
"O=C(Nc1ccc2[nH]ccc2c1)O/N=C/c1ccccc1 [Example 143, Benzaldehyde, O-[[(1H-indol-5-yl)amino]carbonyl]oxime]",> 500,–
"CCCCCCCCCOc1ccc(NC(=O)O/N=C/c2cccc(C(F)(F)F)c2F)cc1 [Example 54, 2-Fluoro-3-(trifluoromethyl)benzaldehyde, O-[[(4-nonyloxyphenyl)amino]carbonyl]oxime]",< 10,–
"CCc1ccc(-c2ccc(NC(=O)O/N=C/c3ccccc3)cc2)cc1 [Example 74, Benzaldehyde, O-[[(4′-ethyl-[1,1′-biphenyl]-4-yl)amino]carbonyl]oxime]",< 10,–
"O=C(Nc1ccc(OCCc2ccccc2)cc1)O/N=C/c1ccccc1 [Example 85, Benzaldehyde, O-[[[4-(2-phenylethoxy)phenyl]amino]carbonyl]oxime]",< 10,–
"CCCCCCCCC(=O)Nc1ccc(NC(=O)O/N=C/c2ccc(F)cc2)cc1 [Example 137, 4-Fluorobenzaldehyde, O-[[(4-Nonanoylamino-phenyl)amino]carbonyl]oxime]",10 to 100,–
"CCCCCCCCCCCOc1ccc(NC(=O)ON=C(C)C)cc1 [Example 36, 2-Propanone, O-[[(4-undecyloxyphenyl)amino]carbonyl]oxime]",< 10,–
"CCOc1ccc(NC(=O)ON=C(C)C)cc1 [Example 6, 2-Propanone, O-[[(4-ethoxyphenyl)amino]carbonyl]oxime]",101 to 500,–
"CCCCOc1ccc(C(CC)NC(=O)Oc2cccc3ccccc23)cc1 (stereo not drawn) [Example 127, [1-(4-Butoxy-phenyl)-propyl]-carbamic acid naphthalen-1-yl ester]",101 to 500,–
